Data published in US20070203126A1, “Synergistic Mixtures of O-Phenylphenol and Dazomet” (priority 2002, published 2007).
Where two headings read alike, the source gives them in different places.

How the values were obtained:
[1] = system: mixed inoculum of bacteria; assay: microtiter plate MIC and combination (K value) test in nutrient broth; type: cell-based; conditions: 24 hours, read-out: MIC RESULTS against mixed inoculum of bacteria
Procedure: EQUIPMENT used for the experiment are as follows: • 1. Incubator capable of maintaining a variable temperature range (25-45 C.); • 2. Samples of each biocide or test compound to be examined; • 3. Microtiter plates—96 well with lid, sterile; • 4. 8-12 channel micropipetting device capable of pipetting 0-250 ul volumes; • 5. Micropipette tips capable of holding up to 250 ul volumes; • 6. Sterile microbiological culture broth. Trypticase Soy Broth (TSB) or Nutrient Broth (NB) is recommended for bacteria and Sabouraud Maltose Broth (SMB) or Sabouraud Dextrose Broth (SDB) is recommended for yeasts and molds. In the case of this particular study the microbiological culture medium was Nutrient Broth at pH 7.0, 8.0 and 9.0; • 7. Pure cultures of microorganisms of choice grown on appropriate agar medium; • 8. Sterile distilled water; • 9. 100 mL volumetric flasks (one for each biocide to be tested); • 10. Sterile 10 mL tubes of Phosphate buffer (Butterfield's buffer pH 7.2+/−0.2). Contains purified water, monobasic potassium phosphate and sodium hydroxide for pH adjustment; • 11. Sterile cotton swabs; • 12. 0.5 MacFarland Turbidity Standard;
Preparation of Bacterial Inocula
The day before testing, perform a streak plate of each organism to be tested on an appropriate agar medium (Trypticase Soy Agar). Organisms tested in this study were.
Wild strain bacteria isolated from previously contaminated industrial systems and which were identified as: Pseudomonas sp., Escherchia coli, Enterobacter sp., Alcaligenes sp. and Alcaligenes faecalis. On the day of the test, use a sterile cotton swab to harvest some of the growth. Place swab into a tube containing 10 mL sterile phosphate buffer. Compare and adjust the turbidity of the organisms in the tube to 1×10^8 cfu/mL using a 0.5 MacFarland Turbidity Standard. Dilute the 10 mL tube into 90 mL of sterile 2× nutrient broth at pH 7.0, 8.0 and 9.0.
The following procedure was used: • 1. Design the layout of the microtiter plates based on the number of organisms to test and the number of biocides and desired concentrations to test. A separate microtiter plate is required for testing each biocide alone, in addition to the combination microtiter plate. • 2. Prepare a working stock solution of each biocide to be tested. For the combination microtiter plate, the working stock solution of Biocide A will be 8× the concentration desired in the first well of the combination microtiter plate. The working stock solution of Biocide B will be 4× the concentration desired in the first well of the combination microtiter plate. For the alone microtiter plates, the working stock solutions of Biocide A and Biocide B will both be 4× the concentration desired in the first well of the single biocide microtiter plates.
Tetrahydro-3-5-dimethyl-2H-1,3-5-thiadiazine-2-thione (Dazomet): (For combination plates) A solution of this product, which is 99% active, was made as follows: […]=8000 ppm active=8000/0.99=8080 ppm, 0.8 g into 100 mL MeOH and sterile diH2O.
o-Phenylphenol (OPP): (For combination plates) Make a solution of this product which is 99% active, 4×125=500 ppm active=500/0.99=505 ppm, 0.05 g into 100 mL MeOH and sterile diH2O. Level to test is 125 ppm.
(For alone plates) A solution was made as follows: 4×4000=16000 ppm active=16000/0.99=16161 ppm, 1.6 into 100 mL MeOH and sterile diH2O. Levels to test are: 4000 ppm, 2000 ppm, 1000 ppm, 500 ppm, 250 ppm, 125 ppm, 62.5 ppm, 31.2 ppm, 15.6 ppm, 7.8 ppm, 3.9 ppm, 1.95 ppm • 3. Place 50 ul of sterile distilled water in all of the rows in columns 1 through 10, and 100 ul of sterile distilled water in all of the rows in columns 11 and 12 of the 96 well combination microtiter plate. Place 100 ul of sterile distilled water in each well of the 96 well alone microtiter plates. • 4. For the combination microtiter plate, place 50 ul of the Biocide A stock solution into all of the rows in column 1 of the combination microtiter plate. • 5. […]

[2] = system: artificial bacterial consortium containing approximately equal numbers of six bacterial strains; assay: bacterial growth inhibition dose protocol in synthetic white water (O.D. 650 nm, 4 hours); type: cell-based; conditions: for Synergy Index: Dazomet & NaOPP, end point 50% inhibition, SI<1 synergism
Procedure: The actives were evaluated in synthetic white water with pH values of 5.5 and 8.0. The materials were tested against an artificial bacterial consortium containing approximately equal numbers of six bacterial strains. […] Two of the strains were Kiebsiella pneumoia (ATCC 13883) and Pseudomonas aeruginosa (ATCC 15442). The other four strains were isolated from papermill systems and have been identified as Curtobacterium flaccumfaciens, Burkhlderia cepacia, Bacillus maroccanus, and Pseudomonas glethei. Each strain was inoculated at 37° C. overnight, then suspended in sterile saline. Equal volumes of each strain were then combined to prepare the consortium. The bacterial consortium was distributed into the wells of a microtiter plate in the presence or absence of various concentrations of the active materials. The microtiter plates were incubated at 37° C. Optical density (O.D.) readings at 650 nm were taken initially (t0) and after time 4 hours (t4) of incubation.
The raw data was converted to “bacterial growth inhibition percentages” according to the following formula: % Inhibition=[(a−b)÷a]·100 […]
a=(O.D. of control at tn)−(O.D. of control at t0) b=(O.D. of treatment at tn)−(O.D. of treatment at t0)
The inhibition values can be plotted versus dosage for each active and the particular blend. […] The synergism index (SI) was calculated by the equations described by F. C. Kull, P. C. Eisman, H. D. Sylwestrowicz, and R. L. Mayer (1961), Applied Microbiology 9, 538-541. The values are based on the amount needed to achieve a specified end point. […] Synergy Index (SI)=(QA÷Qa)+(QB÷Qb) […]
QA=quantity of compound A in mixture, producing the end point
Qa=quantity of compound A1 acting alone, producing the end point
QB=quantity of compound B in mixture, producing the end point
Qb=quantity of compound B1 acting alone, producing the end point
If SI is less than 1, synergism exists; if SI is greater than 1, antagonism exists, if SI is equal to 1, an additive effect exists.

| SMILES | MIC ([1]; pH 7.0, biocide alone) | MIC ([1]; pH 8.0, biocide alone) | MIC ([1]; pH 9.0, biocide alone) | Synergy Index ([2]; pH 5.5) | ppm Dazomet ([2]; pH 5.5, Dazomet alone or in blend with NaOPP giving 50% inhibition, ppm active) | Synergy Index ([2]; pH 8.0) | Ppm Dazomet ([2]; pH 8.0, Dazomet alone or in blend with NaOPP giving 50% inhibition, ppm active) |
| --- | --- | --- | --- | --- | --- | --- | --- |
| Oc1ccccc1-c1ccccc1 [OPP, o-Phenylphenol] | 2000 µg/mL | 1000 µg/mL | 500 µg/mL |  |  |  |  |
| CN1CSC(=S)N(C)C1 [Dazomet, tetrahydo-3,5-dimethyl-2H-1-3-5-thiadiazine-2-thione] | 2000 µg/mL | 2000 µg/mL | 4000 µg/mL | 1.00 | 6.176 ppm | 1.00 | 5.34 ppm |
